For one series, the target named is T1, androgen receptor (Homo sapiens, UniProt P10275, Q868H).
T1 construct: a human breast tumor cell line expressing androgen receptor; endogenous in cells; host or cells: MDA-MB453-MMTV clone 54-19 (MDA-MB-453 stably transfected with the MMTV-luciferase reporter only)
T1 sequence (P10275 1-920 Q868H): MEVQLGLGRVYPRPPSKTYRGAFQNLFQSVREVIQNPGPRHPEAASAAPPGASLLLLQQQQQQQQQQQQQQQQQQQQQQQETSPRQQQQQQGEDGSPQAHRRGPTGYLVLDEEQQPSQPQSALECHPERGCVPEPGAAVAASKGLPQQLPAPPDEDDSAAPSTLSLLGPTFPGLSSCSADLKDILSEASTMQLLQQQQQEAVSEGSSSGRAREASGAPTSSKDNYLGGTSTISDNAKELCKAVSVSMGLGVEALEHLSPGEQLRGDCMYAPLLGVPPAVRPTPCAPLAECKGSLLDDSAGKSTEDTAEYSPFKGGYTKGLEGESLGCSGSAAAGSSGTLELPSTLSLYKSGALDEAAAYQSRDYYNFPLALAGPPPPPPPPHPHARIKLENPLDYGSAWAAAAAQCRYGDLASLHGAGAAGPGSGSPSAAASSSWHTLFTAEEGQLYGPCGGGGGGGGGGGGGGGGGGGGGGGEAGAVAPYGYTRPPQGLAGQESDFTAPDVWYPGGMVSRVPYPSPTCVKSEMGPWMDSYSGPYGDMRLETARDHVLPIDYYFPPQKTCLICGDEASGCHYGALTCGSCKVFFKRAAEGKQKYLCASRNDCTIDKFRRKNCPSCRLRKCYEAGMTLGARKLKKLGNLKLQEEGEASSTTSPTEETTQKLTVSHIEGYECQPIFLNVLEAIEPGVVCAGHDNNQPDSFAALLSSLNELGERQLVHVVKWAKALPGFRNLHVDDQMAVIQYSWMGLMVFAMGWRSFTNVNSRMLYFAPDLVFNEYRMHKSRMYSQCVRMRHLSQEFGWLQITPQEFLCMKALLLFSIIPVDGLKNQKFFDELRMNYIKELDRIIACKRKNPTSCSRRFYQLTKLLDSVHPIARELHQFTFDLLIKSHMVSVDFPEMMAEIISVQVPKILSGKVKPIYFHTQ
The experiment in a line: AR antagonist cell assay (MDA-MB453-MMTV luciferase reporter, 100 pM DHT). The format is cell-based. As to the method: The compounds ability to antagonize the effects of androgen on the androgen receptor were determined in a whole cell assay as described immediately below.
Experimental Procedure for AR Antagonist Cell Assay
This cell line is a stable transfected cell line with MDA-MB453 cell background (a human breast tumor cell line expressing androgen receptor). A MMTV minimal promoter containing ARE was first cloned in front of a firefly luciferase reporter gene. Then the cascade was cloned into transfection vector pUV120puro. […] Puromycin resistant stable cell line was selected.
Cell Culture Media and Reagents:
Plating medium: DMEM (phenol red free), 10% charcoal treated HyClone serum, 1% L-glutamine
Assay medium: DMEM (phenol red free), 1% charcoal treated HyClone serum, 1% L-glutamine, and 1% penicillin/streptomycin
• 1. Cells are maintained in culture medium, splitting cells when they reach 80-90% confluence • 2. To test compounds, 10,000 cells/well are plated to opaque 96 cell culture plate in 100 uvwell plating medium, culture for overnight at 37° C. in cell culture incubator • 3. […] Add 10 ul/well freshly prepared DHT (final concentration at 100 pM) to each well, incubate at 37° C. for 17 hr (overnight) • 5.
The results are reported as the mean of multiple tests as described below (the numbers of tests are indicated in the footnote). N.D. denotes that the compound was not tested.
(In general: In a reporter assay the amount or activity of a reporter protein is the signal.)

The target of series [1] is T2, hAR (human androgen receptor) (Homo sapiens, UniProt P10275).
T2 construct: made in house; host or cells: baculovirus/Sf9 insect cells
T2 sequence (P10275 1-920): T1 sequence (P10275 1-920 Q868H) with H868Q
Nature of the series: Competitive binding analysis on hAR extracts with 3H-DHT tracer. As to the method: The description below describes how the assay was carried out.
Competitive binding analysis was performed on baculovirus/Sf9 generated hAR extracts in the presence or absence of different concentrations of test agent and a fixed concentration of ^3H-dihydrotestosterone (^3H-DHT) as tracer. This binding assay method is a modification of a protocol previously described (Liao S., et. al. J. Steroid Biochem. 20:11-17 1984). Briefly, progressively decreasing concentrations of compounds are incubated in the presence of hAR extract (Chang et al. P.N.A.S. Vol. 89, pp. […], 1992), hydroxylapatite, and 1 nM^3 H-DHT for one hour at 4° C. Subsequently, the binding reactions are washed three times to completely remove excess unbound ^3H-DHT. hAR bound ^3H-DHT levels are determined in the presence of compounds (=i.e competitive binding) and compared to levels bound when no competitor is present (=i.e. maximum binding). Compound binding affinity to the hAR is expressed as the concentration of compound at which one half of the maximum binding is inhibited.

The subject of a further series is Male C3H/HeN mice. Nature of the series: Modified telogen conversion assay. The format is in vivo. To be noted: 3% w/v in propylene glycol (30%)/ethanol (70%), topical, twice daily for 4 weeks. An excerpt: The telogen conversion assay measures the potential of a compound to convert mice in the resting stage of the hair growth cycle (“telogen”) to the active stage of the hair growth cycle (“anagen”). This assay takes advantage of the fact that the fur (i.e. hair) of 7 week old C3H/HeN mice is in the telogen phase. This phase continues until about 75 days of age. In this assay, selected areas of the mice are shaved, contacted with a test agent, or a control, and the difference in the rate of hair growth is measured (i.e. induction of the anagen phase). The first sign of anagen is the darkening of skin color as melanocytes in the follicles start to synthesize melanin, in preparation for the production of pigmented hairs. This model has a number of advantages. This includes the ready availability of female CH3HeN mice, the ability to screen large numbers of compounds quickly, and the ease of housing and handling such animals.
It has been discovered that male C3H/HeN mice may be used in the telogen conversion assay, when evaluating anti-androgen test compounds. Thus, the model relates to a modification of the existing telogen conversion assay. […]
The treatment area was observed and graded every other day for signs of hair growth. The hair growth response was quantified by recording, for each animal, the day on which signs of hair growth first appeared over the treated area. […]

For series [2] the following is noted: after 7 years of treatment; cited from earlier work.
Where [3] appears, read: MDA-MB453-MMTV clone 54-19, 100 pM DHT, 17 hr, mean of multiple tests, read-out: AR Cell IC50.
Setting [4] is: baculovirus/Sf9 generated hAR extract, 1 nM 3H-DHT, one hour at 4° C., mean of repeated tests, read-out: AR Binding IC50.

The source of these data is patent publication US20070129409A1, “Androgen receptor modulators” (priority 2003, published 2007).

Residue numbers refer to the chain shown, from its start. Read-outs that look alike come from different tables or passages of the source.

In the case of `CC(c1ccccc1)N(C)c1cc(C(F)(F)F)c(C#N)cn1` (centres unmarked) [Example 2, 6-[Methyl-(1-Phenyl-ethyl)-amino]-4-trifluoromethyl-nicotinonitrile], the IC50 (in general, the point on the concentration scale where inhibition reaches its midpoint) against androgen receptor is 229 nM; in series [1], 123 nM.
On to “2-Chloro-6-(methyl-propyl-amino)-4-trifluoromethyl-nicotinonitrile [Example 12]”, for which the half-maximal inhibitory concentration (IC50) on androgen receptor (setting [3]) was found to be 587 nM; in series [1] (setting [4]), 88 nM.
As to `C[C@H](c1ccccc1)N(C)c1cc(C(F)(F)F)c(C#N)cn1` [Example 1, (R)-(+)-6-[Methyl-(1-Phenyl-ethyl)-amino]-4-trifluoromethyl-nicotinonitrile], the IC50 at androgen receptor turned out to be 45 nM; in series [1], 20 nM. In addition, the “hair growth (induction of anagen)” value with Male C3H/HeN mice is recorded as “produced substantial hair growth”.
With `CCCCN(CCO)c1cc(C(F)(F)F)c(C#N)cn1` [Example 5, 6-[Butyl-(2-hydroxy-ethyl)-amino]-4-trifluoromethyl-nicotinonitrile], the IC50 in series [1] (setting [4]) stood at 548 nM.
`CCC(C)N(C)c1cc(C(F)(F)F)c(C#N)cn1` (centres unmarked) [Example 4, 6-(sec-Butyl-methyl-amino)-4-trifluoromethyl-nicotinonitrile]: the half-inhibitory concentration (IC50) on androgen receptor (setting [3]) was > 1000 nM; in series [1] it was 10 nM.
As for `CN(Cc1ccccc1)c1cc(C(F)(F)F)c(C#N)cn1` [Example 7, 6-(Benzyl-methyl-amino)-4-trifluoromethyl-nicotinonitrile], the IC50 in series [1] (setting [4]) worked out at 538 nM.
For `CCCN(c1cc(C(F)(F)F)c(C#N)cn1)C1CCCCC1` [Example 8, 6-(Cyclohexyl-propyl-amino)-4-trifluoromethyl-nicotinonitrile], the IC50 in series [1] (setting [4]) was determined as 425 nM.
For the molecule `CCCN(CCC)c1cc(C(F)(F)F)c(C#N)cn1` [Example 3, 6-Dipropylamino-4-trifluoromethyl-nicotinonitrile], the IC50 at androgen receptor (setting [3]) is > 1000 nM; in series [1], 22 nM.
Consider `C[C@H](c1ccccc1)N(C)c1cc(C(F)(F)F)c(C#N)cn1` (hydrate or solvate) [Example 1, (R)-(+)-6-[Methyl-(1-Phenyl-ethyl)-amino]-4-trifluoromethyl-nicotinonitrile], for which the melting point – broadly, the temperature, or range, at which the solid turns liquid – is 47.2 to 47.7 °C.
For the molecule `CCC(C)N(C)c1cc(C(F)(F)F)c(C#N)c(Cl)n1` (centres unmarked) [Example 10], the 50% inhibitory concentration (IC50) at androgen receptor (setting [3]) was > 1000 nM; in series [1], 0.5 nM.
Taken in the same sequence, the figures for `CCCN(CCC)c1cc(C(F)(F)F)c(C#N)c(Cl)n1` [Example 11, 6-Dipropylamino-2-chloro-4-rtifluoromethyl-nicotinonitrile] were > 1000 nM and 8.2 nM.
Turning to `NCCCC(O)(P(=O)(O)O)P(=O)(O)O` [alendronate], the “increase in spinal BMD” value in series [2] is on record as ≤ 11%.
